Structures can show the parent of a compound that is named as a salt.
How the values were obtained:
[1] = biological target: catalytic domain of USP7 (USP7-CD) (Homo sapiens, UniProt Q93009); experiment: STD-NMR titration for dissociation constant; type: binding
USP7-CD = USP7-CD (Homo sapiens, UniProt Q93009); experiment: Thermal shift assay; conditions: decrease of Tm of USP7-CD, USP7 10 μM, ligand 1 mM
[2] = tested on: USP7, MDM2 and c-Myc mRNA in HCT-116 cells; experiment: Quantitative gene expression analysis; type: cell-based, human; conditions: HCT116, compound at IC50 concentration, 48 h, versus untreated cells
[3] = tested on: p53 mRNA in HCT-116 cells; experiment: Quantitative gene expression analysis; type: cell-based, human; conditions: HCT116, compound at IC50 concentration, 48 h, versus untreated cells
HCT116 cells = experiment: MTT anti-proliferation assay; type: cell-based, human; conditions: for IC50: Homo sapiens, HCT-116, 48 h; for inhibition of proliferation of cancerous cells: HCT116, MTT, 48 h
USP7 = conditions: read-out: IC50 of USP7 inhibition; no reference given; cited from earlier work

Chain of catalytic domain of USP7 (USP7-CD) (Q93009 208-560): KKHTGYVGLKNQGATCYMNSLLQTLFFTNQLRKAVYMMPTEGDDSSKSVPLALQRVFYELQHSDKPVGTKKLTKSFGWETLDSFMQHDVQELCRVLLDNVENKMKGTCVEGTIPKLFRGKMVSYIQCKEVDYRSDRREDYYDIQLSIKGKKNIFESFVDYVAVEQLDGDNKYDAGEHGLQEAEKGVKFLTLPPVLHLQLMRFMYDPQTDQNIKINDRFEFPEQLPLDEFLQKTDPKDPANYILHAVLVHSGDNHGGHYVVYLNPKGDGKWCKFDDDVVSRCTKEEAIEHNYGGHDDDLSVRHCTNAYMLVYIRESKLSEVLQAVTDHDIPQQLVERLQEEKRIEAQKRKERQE
Chain of USP7-CD (Q93009 208-560): as above

Structure (SMILES)	Kd [1] [µM]	mRNA expression of proto-oncogenes (USP7, MDM2, c-Myc) [2]	also measured
Nc1c(CC(=O)O)cccc1C(=O)c1ccc(Br)cc1 [Compound 1, Bromfenac Sodium]	780 ± 530		
O=C(O)Cc1ccccc1Nc1c(Cl)cccc1Cl [Compound 2, Diclofenac Sodium]	760 ± 560		Thermal Shift (Δtm) (USP7-CD): 2.40 °C
CC(C(=O)O)c1cccc(C(=O)c2ccccc2)c1 (stereo not shown) [Compound 3, Ketoprofen]	620 ± 560		
CC(CCc1ccccc1)NCC(O)c1ccc(O)c(C(N)=O)c1 (stereo not shown) [Compound 4, Labetalol Hydrochloride]	910 ± 700		Thermal Shift (Δtm) (USP7-CD): 3.95 °C
CCN(CC)CC#CCOC(=O)C(O)(c1ccccc1)C1CCCCC1 (stereo not shown) [Compound 6, Oxybutynin HCl]	660 ± 460	significantly decreased	
CN1CCC(=C2c3ccccc3CC(=O)c3sccc32)CC1 [Compound 7, Ketotifen]	1100 ± 880	significantly decreased	mRNA expression of tumor suppressor gene (p53) [3]: non-significantly; IC50 (HCT116 cells): 89 ± 1.55 µM
Clc1ccccc1CN1CCc2sccc2C1 [Compound 8, Ticlopidine Hydrochloride]	1490 ± 1410		inhibition of proliferation of cancerous cells (HCT116 cells): inactive
Nc1nnc(-c2cccc(Cl)c2Cl)c(N)n1 [Compound 9, Lamotrigine]	1000 ± 560		inhibition of proliferation of cancerous cells (HCT116 cells): inactive
COc1ccnc(C[S+]([O-])c2nc3ccc(OC(F)F)cc3[nH]2)c1OC (stereo not shown) [Compound 10, Pantoprazole Sodium]	870 ± 280	significantly decreased	IC50 (HCT116 cells): 222 ± 0.29 µM
CN(C)CCC[C@@]1(c2ccc(F)cc2)OCc2cc(C#N)ccc21 [Compound 11, Escitalopram]	1220 ± 1120	significantly decreased	mRNA expression of tumor suppressor gene (p53) [3]: non-significantly; IC50 (HCT116 cells): 227.6 ± 0.71 µM
N#Cc1nc2c(nc1C#N)-c1ccc(Cl)cc1C2=O [HBX 41108]			IC50 (USP7): 0.424 µM; Thermal Shift (Δtm) (USP7-CD; listed as 12): 6.20 °C

Reference: paper PMC10925992 (Heliyon, 2024)
